Assay results as given in patent US20250206759A1, “FUSED RING COMPOUND, PHARMACEUTICAL COMPOSITION CONTAINING SAME, AND USE OF FUSED RING COMPOUND” (CHENGDU HYPERWAY PHARMACEUTICALS CO., LTD., priority 2022, published 2025).
Read-outs that look alike come from different tables or passages of the source.

Legend:
[1] = Pharmacokinetics of compounds in rats (oral); assay type: in vivo, SD rats; conditions: male SD rats
Experimental: Male SD rats were purchased from Shanghai SIPPR-Bk Lab Animal Co., Ltd. Each test compound was administered orally (3 rats per group) once to SD rats for pharmacokinetic study. The test compounds were prepared on the day of administration. The test compounds were suspended in 5% DMSO+95% saline, and then vortexed for 2 min and ultrasonicated for 5 min to prepare the administration system. The animals were fasted for 10-14 h before oral administration, and the feeding was resumed 4 h after administration. After oral administration by gavage, pharmacokinetic samples were collected from SD rats through the jugular vein. The collection time points were: before administration, 15 min, 30 min, 1 h, 2 h, 4 h, 6 h, 8 h and 24 h after administration. Three whole blood samples were collected at each time point, with a collection volume of about 0.2 mL, and anticoagulated with sodium heparin. After blood samples were collected, they were immediately placed on ice and centrifuged to separate plasma within 1 hour (centrifugation conditions: 6800 rpm, 6 min, 2-8° C.). The collected plasma was stored in a −80° C. refrigerator before analysis.

[2] = test system: KRas G12D-mediated ERK phosphorylation; assay: Inhibition of KRas G12D-mediated ERK phosphorylation in AGS cells; assay type: cell-based; conditions: read-out: AGS-pERK IC50
Experimental: Day 1: AGS cells were seeded into 384-well cell culture plates and cultured overnight in a 37° C., 5% CO2 incubator.
Day 2: The compounds were added to the plates using Echo550 and incubated for 3 h in a 37° C., 5% CO2 incubator. Then cells were fixed with paraformaldehyde, permeated with methanol, and blocked with the blocking solution. Finally, a mixed solution of primary antibodies (rabbit anti pERK, mouse anti GAPDH) was added, and the mixture was incubated at 4° C. overnight.
Day 3: The mixed solution of primary antibodies was discarded, and a mixed solution of secondary antibodies (goat anti rabbit 800CW, goat anti mouse 680RD) was added. The mixture was incubated at room temperature in the dark. Finally, the cell culture plate was washed with PBST, and then inverted for 1 minute of centrifugation. The fluorescence signal values were read with Odyssey CLx.
ERK phosphorylation was calculated according to the following formula: […]
X: log value of compound concentration.
Y: average value of relative expression of p-ERK between replicate wells.

[3] = male, SD, rat, plasma, po, 100 mg/kg, 100 mg/kg, read-out: AUC
[4] = male, SD, rat, plasma, po, 100 mg/kg, 100 mg/kg, read-out: Cmax

Row | Compound | IC50 [2] [nM] | AUC [1, 3] [ng·h/mL] | Cmax [1, 4] [ng/mL] | IC50 ([2]; Homo sapiens, AGS) [nM] | further results
1 | 4-(4-((1R,5S)-3,8-diazabicyclo[3.2.1]octan-3-yl)-8-fluoro-2-((3-(4-methoxyphenyl)tetrahydro-1H-pyrrolidin-7a(5H)-yl)methoxy)pyrido[4,3-d]pyrimidin-7-yl)-5,6-difluoronaphthalen-2-ol [Example 34] | 27 |  |  |  | AUC ([1]; 10 mg/kg): 75 ng·h/mL; Cmax ([1]; 10 mg/kg): 25 ng/mL
2 | CC1(C)OC(C)(C)c2cc([C@H]3CCC4(COc5nc(N6CC7CCC(C6)N7)c6cnc(-c7cc(O)cc8ccc(F)c(F)c78)c(F)c6n5)CCCN34)ccc21 (mixture of isomers) [Example 211] | 0.96 |  |  |  | AUC ([1]; 100 mg/kg): 225 ng·h/mL; Cmax ([1]; 100 mg/kg): 97 ng/mL
3 | Oc1cc(-c2ncc3c(N4CC5CCC(C4)N5)nc(OCC45CCCN4[C@@H](c4ccc(Cl)c(Cl)c4)CC5)nc3c2F)c2c(F)c(F)ccc2c1 (mixture of isomers) [Example 220] |  | 140 | 38 | 3.2 | 
4 | Oc1cc(-c2ncc3c(N4CC5CCC(C4)N5)nc(OCC45CCCN4[C@@H](c4cc(F)c(F)c(F)c4)CC5)nc3c2F)c2c(F)c(F)ccc2c1 (mixture of isomers) [Example 222] |  | 258 |  | 1.1 | Cmax ([1]; 100 mg/kg): 82 ng/mL
5 | CC1(C)OC(C)(C)c2cc([C@H]3CCC4(COc5nc(N6CC7CCC(C6)N7)c6cnc(-c7cc(O)cc8ccc(F)c(F)c78)c(F)c6n5)CCCN34)ccc21 (single isomer, unassigned) [Example 198] |  | 219 | 141 | 0.72 | 
6 | Oc1cc(-c2ncc3c(N4C[C@H]5CC[C@@H](C4)N5)nc(OCC45CCCN4C(c4ccc6c(c4)COC6)CC5)nc3c2F)c2ccccc2c1 (stereo partly drawn) [Example 43, 4-(4-((1R,5S)-3,8-diazabicyclo[3.2.1]octan-3-yl)-2-((3-(1,3-dihydroisobenzofuran-5-yl)tetrahydro-1H-pyrrolidin-7a(5H)-yl)methoxy)-8-fluoropyrido[4,3-d]pyrimidin-7-yl)naphthalen-2-ol] | 41 |  |  |  | AUC ([1]; 100 mg/kg): 537 ng·h/mL; Cmax ([1]; 100 mg/kg): 164 ng/mL
7 | Oc1cc(-c2ncc3c(N4CC5CCC(C4)N5)nc(OCC45CCCN4C(c4ccc(F)cc4)CC5)nc3c2F)c2c(F)c(F)ccc2c1 (centres unmarked) [Example 108] | 14 | 2090 | 157 |  | 
8 | CC1(C)OCc2cc(C3CCC4(COc5nc(N6C[C@H]7CC[C@@H](C6)N7)c6cnc(-c7cc(O)cc8ccc(F)c(F)c78)c(F)c6n5)CCCN34)ccc21 (stereo partly drawn) [Example 146, 4-(4-((1R,5S)-3,8-diazabicyclo[3.2.1]octan-3-yl)-2-((3-(1,1-dimethyl-1,3-dihydroisobenzofuran-5-yl)tetrahydro-1H-pyrrolizin-7a(5H)-yl)methoxy)-8-fluoropyrido[4,3-d]pyrimidin-7-yl)-5,6-difluoronaphthalen-2-ol] |  | 483 | 143 | 11 | 
9 | CC1(C)OC(C)(C)c2cc(C3CCC4(COc5nc(N6C[C@H]7CC[C@@H](C6)N7)c6cnc(-c7cc(O)cc8ccccc78)c(F)c6n5)CCCN34)ccc21 (stereo partly drawn) [Example 149, 4-(4-((1R,5S)-3,8-diazabicyclo[3.2.1]octan-3-yl)-8-fluoro-2-((3-(1,1,3,3-tetramethyl-1,3-dihydroisobenzofuran-5-yl)tetrahydro-1H-pyrrolizin-7a(5H)-yl)methoxy)pyrido[4,3d]pyrimidin-7-yl)naphthalen-2-ol] | 23 |  |  |  | AUC ([1]; 100 mg/kg): 1192 ng·h/mL; Cmax ([1]; 100 mg/kg): 148 ng/mL
10 | [2H]C1([2H])OCc2cc(C3CCC4(COc5nc(N6C[C@H]7CC[C@@H](C6)N7)c6cnc(-c7cc(O)cc8ccc(F)c(F)c78)c(F)c6n5)CCCN34)ccc21 (stereo partly drawn) [Example 151, 4-(4-((1R,5S)-3,8-diazabicyclo[3.2.1]octan-3-yl)-2-((3-(1,3-dihydroisobenzofuran-5-yl-1,1-d2)tetrahydro-1H-pyrrolizin-7a(5H)-yl)methoxy)-8-fluoropyrido[4,3-d]pyrimidin-7-yl)-5,6-difluoronaphthalen-2-ol] |  |  |  | 7.6 | 
11 | Oc1cc(-c2ncc3c(N4C[C@H]5CC[C@@H](C4)N5)nc(OCC45CCCN4C(c4ccc6c(c4)C4CCC6O4)CC5)nc3c2F)c2c(F)c(F)ccc2c1 (stereo partly drawn) [Example 153, 4-(4-((1R,5S)-3,8-diazabicyclo[3.2.1]octan-3-yl)-8-fluoro-2-((3-(1,2,3,4-tetrahydro-1,4-epoxynaphthalen-6-yl)tetrahydro-1H-pyrrolizin-7a(5H)-yl)methoxy)pyrido[4,3d]pyrimidin-7-yl)-5,6-difluoronaphthalen-2-ol] | 5.2 |  |  |  | AUC ([1]; 100 mg/kg): 458 ng·h/mL; Cmax ([1]; 100 mg/kg): 156 ng/mL
12 | CC1(C)OCc2ccc(C3CCC4(COc5nc(N6CC7CCC(C6)N7)c6cnc(-c7cc(O)cc8ccc(F)c(F)c78)c(F)c6n5)CCCN34)cc21 [Example 156, 4-(4-((1R,5S)-3,8-diazabicyclo[3.2.1]octan-3-yl)-2-((3-(3,3-dimethyl-1,3-dihydroisobenzofuran-5-yl)tetrahydro-1H-pyrrolizin-7a(5H)-yl)methoxy)-8-fluoropyridin[4,3-d]pyrimidin-7-yl)-5,6-difluoronaphthalen-2-ol] |  | 598 | 138 | 15 | 
13 | C#Cc1c(F)ccc2cc(O)cc(-c3ncc4c(N5CC6CCC(C5)N6)nc(OCC56CCCN5C(c5ccc7c(c5)COC7)CC6)nc4c3F)c12 (centres unmarked) [Example 178] |  |  |  | 3.8 | 
14 | Oc1cc(-c2ncc3c(N4CC5CCC(C4)N5)nc(OCC45CCCN4C(c4ccc6c(c4)COCC6)CC5)nc3c2F)c2c(F)c(F)ccc2c1 (centres unmarked) [Example 187] |  | 567 | 109 | 13 | 
15 | C#Cc1c(F)ccc2cc(O)cc(-c3ncc4c(N5CC6CCC(C5)N6)nc(OCC56CCCN5C(c5ccc(F)cc5)CC6)nc4c3F)c12 (centres unmarked) [Example 188] |  | 862 | 149 | 5.2 | 
16 | Oc1cc(-c2ncc3c(N4CC5CCC(C4)N5)nc(OCC45CCCN4C(c4ccc(F)cc4)CC5)nc3c2F)c2c(F)c(F)ccc2c1 (centres unmarked) [Example 194] | 1.1 |  |  |  | 
17 | COc1ccc([C@H]2CCC3(COc4nc(N5CC6CCC(C5)N6)c5cnc(-c6cc(O)cc7ccc(F)c(F)c67)c(F)c5n4)CCCN23)cc1OC(F)(F)F (some centres unmarked) [Example 216] |  |  |  | 1.6 | 
18 | Oc1cc(-c2ncc3c(N4CC5CCC(C4)N5)nc(OCC45CCCN4C(c4ccc(Cl)c(C(F)(F)F)c4)CC5)nc3c2F)c2c(F)c(F)ccc2c1 (centres unmarked) [Example 227] |  | 245 | 52 | 2.4 | 
19 | Nc1cc(Cl)c(C(F)(F)F)c(-c2ncc3c(N4CC5CCC(C4)N5)nc(OCC45CCCN4C(c4ccc(F)c(F)c4)CC5)nc3c2F)c1 (centres unmarked) [Example 244] |  |  |  | 6.4 | 
